# Data as given in US7935817B2, “Salt form and cocrystals of adefovir dipivoxil and processes for preparation thereof” (Apotex Pharmachem Inc., priority 2008, dated 2011).
# Entries after “also recorded” stand apart in the source; their conditions may differ. Where two headings read alike, the source gives them in different places.
# How the values were obtained:
# [1] = stability studies: HPLC purity after storage at 40° C./75% relative humidity; format: physicochemical
# [2] = pH 7; cited from earlier work
# [3] = cited from earlier work
# [4] = after 1 week at 40° C./75% R.H.
SMILES,"decrease of HPLC purity [1, 4]",decrease of HPLC purity ([1]; after 2 weeks at 40° C./75% R.H.) [%],"decrease of HPLC purity per week ([1]; storage at 40° C./75% relative humidity, over 2 weeks) [% per week]",decrease of HPLC purity ([1]; after 4 weeks at 40° C./75% R.H.) [%],octanol/aqueous phosphate buffer partition coefficient (log p) [2],aqueous solubility ([3]; pH 2.0) [mg/mL],aqueous solubility ([3]; pH 7.2) [mg/mL]
"CC(C)(C)C(=O)OCOP(=O)(COCCn1cnc2c(N)ncnc21)OCOC(=O)C(C)(C)C [amorphous adefovir dipivoxil, 9-[2-[[bis[(pivaloyloxy)methoxy]phosphinyl]-methoxy]ethyl]adenine]",more than 1%,2,1,–,–,–,–
"CC(C)(C)C(=O)OCOP(=O)(COCCn1cnc2c(N)ncnc21)OCOC(=O)C(C)(C)C.NC(=O)c1cccnc1 [ADE:NIC, adefovir dipivoxil:nicotinamide]",no decrease; also recorded: unchanged,–,–,0.06,–,–,–
"CC(C)(C)C(=O)OCOP(=O)(COCCn1cnc2c(N)ncnc21)OCOC(=O)C(C)(C)C [Adefovir dipivoxil, 9-[2-[[bis[(pivaloyloxy)methoxy]phosphinyl]-methoxy]ethyl]adenine]",–,–,–,–,1.91,19,0.4
